From patent US20160326142A1, “PYRAZOLE CARBOXAMIDE COMPOUNDS, COMPOSITIONS AND METHODS OF USE” (Genentech, Inc., priority 2012, published 2016)

biological target: T1, ITK (Homo sapiens, UniProt Q08881); assay: ITK enzyme assay (Caliper or LCMS peptide phosphorylation); type: biochemical; conditions: purified ITK (Invitrogen PV3875), 20 μM ATP, Ki by Morrison's quadratic equation
T1 construct: purchased Invitrogen PV3875
T1 sequence (Q08881 1-620): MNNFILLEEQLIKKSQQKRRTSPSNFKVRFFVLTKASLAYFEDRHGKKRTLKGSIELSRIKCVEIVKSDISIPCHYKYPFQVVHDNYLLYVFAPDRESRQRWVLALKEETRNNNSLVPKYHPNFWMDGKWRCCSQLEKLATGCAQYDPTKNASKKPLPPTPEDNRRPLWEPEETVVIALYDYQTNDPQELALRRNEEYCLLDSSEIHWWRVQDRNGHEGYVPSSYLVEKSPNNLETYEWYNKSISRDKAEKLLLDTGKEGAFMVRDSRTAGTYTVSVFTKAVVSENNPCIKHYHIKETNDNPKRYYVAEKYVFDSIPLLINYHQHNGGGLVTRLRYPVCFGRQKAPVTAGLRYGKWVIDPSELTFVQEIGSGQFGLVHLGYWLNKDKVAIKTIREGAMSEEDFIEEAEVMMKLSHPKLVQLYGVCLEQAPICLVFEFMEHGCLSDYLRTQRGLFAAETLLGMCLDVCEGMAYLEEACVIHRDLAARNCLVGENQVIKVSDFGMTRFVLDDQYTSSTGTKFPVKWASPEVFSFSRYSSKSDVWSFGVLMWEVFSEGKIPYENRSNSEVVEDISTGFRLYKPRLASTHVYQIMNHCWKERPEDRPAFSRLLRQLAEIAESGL
In short: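 Purified human ITK peptide phosphorylation, quenched with EDTA (50 mM final) for Caliper LabChip separation or TCA (5% v/v final) for UPLC-MS/MS MRM quantification. Ki derived via Morrison tight-binding equation, corrected for competitive inhibition using ATP concentration relative to Km,app.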

Structure (SMILES) | Ki [nM]
CN(CCC(c1ccccc1)n1cc(NC(=O)c2n[nH]c3c2CCC(C)(C)C3)cn1)S(C)(=O)=O (centres unmarked) [Example 122, 6,6-dimethyl-N-(1-(3-(N-methylmethylsulfonamido)-1-phenylpropyl)-1H-pyrazol-4-yl)-4,5,6,7-tetrahydro-1H-indazole-3-carboxamide] | 4
CN1CCC2(CCc3c(C(=O)Nc4cnn(Cc5ccccc5)c4)n[nH]c3C2)C1=O (centres unmarked) [Example 123b, N-(1-benzyl-1H-pyrazol-4-yl)-1′-methyl-2′-oxo-1,4,5,7-tetrahydrospiro[indazole-6,3′-pyrrolidine]-3-carboxamide] | 4000
O=C(Nc1cnn(Cc2ccccc2)c1)c1n[nH]c2c1CCCCC2 [Example 124, N-(1-benzyl-1H-pyrazol-4-yl)-1,4,5,6,7,8-hexahydrocyclohepta[c]pyrazole-3-carboxamide] | 140
CC1(C)CCc2c(C(=O)Nc3cnn(C(c4ccccc4)C4CS(=O)(=O)CCN4)c3)n[nH]c2C1 (centres unmarked) [Example 128a, N-(1-((1,1-dioxidothiomorpholin-3-yl)(phenyl)methyl)-1H-pyrazol-4-yl)-6,6-dimethyl-4,5,6,7-tetrahydro-1H-indazole-3-carboxamide] | 42
CC12Cc3[nH]nc(C(=O)Nc4cnn(C(c5ccccc5)C5CCS(=O)(=O)CC5)c4)c3CC1C2(F)F (centres unmarked) [Example 141, N-(1-((1,1-dioxidotetrahydro-2H-thiopyran-4-yl)(phenyl)methyl)-1H-pyrazol-4-yl)-5,5-difluoro-5a-methyl-1,4,4a,5,5a,6-hexahydrocyclopropa[f]indazole-3-carboxamide] | < 0.1
